The results in this text go back to patent publication US10611765B2, “Pyrrolopyrimidine derivatives as Mps1/TTK kinase inhibitors” (Ohio State Innovation Foundation, priority 2014, dated 2020).

Experiment [1] concerns the target twenty common kinases. Description: Kinase profiling assays for twenty common kinases. The format is biochemical. How it is done:
(§1) Briefly, the inhibition potency to Mps1 kinase activity was determined by measurement of radioactive phosphotransfer to the specific substrate, Cetn2. The autophosphorylation of Mps1 was also measured using the same method without adding Cetn2 in the kinase assay reaction mixture. […] Mps1 activity was measured using 0.25 ng of recombinant GST-Mps1 protein in 50 mM TrisCl pH 7.5, 0.5 mM DTT, 10 mM MgCl2, 300 μM recombinant Cetn2 and 3 μM ^32P-γ-ATP. […] ATP was added to initiate the kinase assay, incubated at 30° C. for 30 min and five-fold volume of […] was added to quench the reaction. The whole reaction was immobilized on Immobilon-P^SQ PVDF membrane (Millipore) using a dot blotter connected to vacuum line. Each well was washed three times with 300 μL of PBS. The membrane was further washed by soaking in PBS, dried, and exposed overnight to a Phosphor Screen. The image was acquired by the Storm imaging system (Amersham). The density analyses were performed by using Image-J program, and kinetic constants were calculated by GraphPad Prism 5 software. Commercial kinase profiling assays were performed by Reaction Biology Corp., Malvern, Pa.

Experiment [2] deals with Mps1 (autophosphorylation) (Homo sapiens, UniProt P33981). Description: biochemical. How it is done:
as §1

For orientation: IC50 means the concentration that gives 50% inhibition. High values mean lower potency, low ones higher potency.

Mps1 (autophosphorylation), sequence (P33981 whole entry): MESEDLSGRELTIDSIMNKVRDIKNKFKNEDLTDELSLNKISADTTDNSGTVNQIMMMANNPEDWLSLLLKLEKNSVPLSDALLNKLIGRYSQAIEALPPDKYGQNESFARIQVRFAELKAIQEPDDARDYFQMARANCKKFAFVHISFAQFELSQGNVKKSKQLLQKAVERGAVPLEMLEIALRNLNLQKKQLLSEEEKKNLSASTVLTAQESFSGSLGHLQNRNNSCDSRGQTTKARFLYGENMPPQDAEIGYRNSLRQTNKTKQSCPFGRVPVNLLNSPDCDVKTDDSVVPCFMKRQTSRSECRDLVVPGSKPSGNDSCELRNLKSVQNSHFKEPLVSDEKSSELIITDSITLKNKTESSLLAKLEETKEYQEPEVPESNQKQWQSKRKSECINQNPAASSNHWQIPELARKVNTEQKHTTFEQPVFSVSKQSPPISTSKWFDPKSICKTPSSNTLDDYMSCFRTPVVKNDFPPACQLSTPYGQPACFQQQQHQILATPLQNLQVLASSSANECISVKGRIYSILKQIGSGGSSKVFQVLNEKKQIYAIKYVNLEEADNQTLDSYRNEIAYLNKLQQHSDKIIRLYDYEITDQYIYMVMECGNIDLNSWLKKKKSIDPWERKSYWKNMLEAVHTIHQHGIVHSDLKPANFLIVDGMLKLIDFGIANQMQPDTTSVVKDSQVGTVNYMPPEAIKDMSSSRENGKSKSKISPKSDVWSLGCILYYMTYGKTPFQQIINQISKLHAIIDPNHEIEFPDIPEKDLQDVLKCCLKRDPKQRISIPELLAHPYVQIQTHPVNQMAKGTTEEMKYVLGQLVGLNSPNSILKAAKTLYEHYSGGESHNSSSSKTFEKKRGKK

As for `COc1cc(N2CCOCC2)ccc1Nc1nc(NC2CCCCC2)c2cc[nH]c2n1` [Compound 13, N4-cyclohexyl-N2-(2-methoxy-4-morpholinophenyl)-7H-pyrrolo[2,3-d]pyrimidine-2,4-diamine], the “kinases inhibited in profiling of twenty common kinases” value in experiment [1] is “only two kinases”. In experiment [2], this compound displayed an IC50 of 312 nM.
